Laboratory results as given in US4451467A, “4(3H)-Quinazolinone derivatives, process for production thereof, and pharmaceutical compositions comprising said compounds” (Ishikawa; Masayuki, priority 1981, dated 1984).

Experiments:
Assay type in all cases: in vivo
[1] = system: normotensive dogs anesthetized with pentobarbital sodium; experiment: Hypotensive effect on anesthetized dogs (intravenous); conditions: i.v.; for hypotensive effect in anesthetized dogs (in words): same conditions as Table II, dose under 100 μg/kg; for Hypotensive Effect Δ(mmHg): anesthetized dogs, mean value
Procedure: Groups of three to four normotensive dogs anesthetized with pentobarbital sodium were used in the experiments. The test compounds were dissolved in a minimum amount of ethanol, and the solutions were administered intravenously in the vein cannulated with a polyethylene tube. The mean blood pressures in the carotid artery were recorded using a pressure transducer and a recorder. The hypotensive effect in Table II are a mean value obtained from at least three to four experiments.

[2] = Test for acute toxicity (oral, rats); conditions: rat, in vivo, rats, 8 days
From the text: (§1) A suspension of a test compound in 0.5% CMC aqueous solution containing Tween 80 was orally administered to rats, and during 8 days the number of dead rats was counted.

rats = experiment: Test for acute toxicity (oral, rats); conditions: for number of dead rats [drawing 15]: 8 days
From the text: as §1

[3] = system: male spontaneously hypertensive rats (Wister Kyoto origin); experiment: Hypotensive effect on conscious spontaneously hypertensive rats (oral); conditions: Rattus norvegicus, tail-cuff method, read-out: pD30 (dose which decreases systolic blood pressure by 30 mmHg)
Procedure: (b) Hypotensive effect on conscious spontaneously hypertensive rate
The test compounds were orally administered to groups of four to five of male spontaneously hypertensive rats (Wister Kyoto origin) weighing about 300 g and aged 15 to 20 weeks. The systolic blood pressure was measured by the tail-cuff method using a plethysmograph.

| Compound | Hypotensive Effect Δ(mmHg) ([1]; dose 1.0 μg/kg) | Hypotensive Effect Δ(mmHg) ([1]; dose 3.0 μg/kg) | Hypotensive Effect Δ(mmHg) ([1]; dose 10 μg/kg) | other results |
| --- | --- | --- | --- | --- |
| CCOC(=O)c1c(C)cc2nc(C)n(-c3ccccc3Cl)c(=O)c2c1C [3-(2-chlorophenyl)-6-ethoxycarbonyl-2,5,7-trimethyl-4(3H)-quinazolinone, reference compound] | – | – | – | hypotensive effect in anesthetized dogs (in words) [1]: did not exhibit a hypotensive effect |
| CCOC(=O)c1c(C)cc2c(c1C)c(=O)n(-c1ccccc1Cl)c(=O)n2CCN(CC)CC [3-(2-chlorophenyl)-6-ethoxycarbonyl-5,7-dimethyl-1-(2-(N,N-diethylamino)ethyl]-2,4(1H,3H)-quinazolinedione, reference compound] | – | – | – | hypotensive effect in anesthetized dogs (in words) [1]: did not exhibit a hypotensive effect |
| CCOC(=O)c1c(C)cc2nc(C)n(-c3ccccc3C(F)(F)F)c(=O)c2c1C [6-ethoxycarbonyl-3-[2-(trifluoromethyl)phenyl]-2,5,7-trimethyl-4(3H)-quinazoline, reference compound] | – | – | – | hypotensive effect in anesthetized dogs (in words) [1]: did not exhibit a hypotensive effect |
| CCOC(=O)c1c(C)cc2c(c1C)c(=O)n(-c1ccccc1C(F)(F)F)c(=O)n2CCN(CC)CC [6-ethoxycarbonyl-3-[2-(trifluoromethyl)phenyl]-5,7-dimethyl-1-[2-(N,N-diethylamino)ethyl]-2,4(1H,3H)-quinazolinedione, reference compound] | – | – | – | hypotensive effect in anesthetized dogs (in words) [1]: did not exhibit a hypotensive effect |
| CCOC(=O)c1c(C)cc2nc(COC(=O)NC)n(-c3ccccc3Cl)c(=O)c2c1C [Compound 1, 3-(2-chlorophenyl)-6-ethoxycarbonyl-5,7-dimethyl-2-(N-methylcarbamoyloxymethyl)-4(3H)-quinazolinone] | 3 | 6 | 22 | Hypotensive Effect Δ(mmHg) ([1]; dose 30 μg/kg): 43 mmHg; Hypotensive Effect Δ(mmHg) ([1]; dose 100 μg/kg): 51 mmHg; LD50 at 192 h [2]: 2500 mg/kg; toxicity (in words) (rats; acute, rats): very low; number of dead rats [drawing 15] (rats; dose 1200 mg/Kg): 2/6; number of dead rats [drawing 15] (rats; dose 1715 mg/Kg): 3/6; number of dead rats [drawing 15] (rats; dose 2450 mg/Kg): 3/6; number of dead rats [drawing 15] (rats; dose 3500 mg/Kg): 3/6; number of dead rats [drawing 15] (rats; dose 5000 mg/Kg): 5/6; ED (30 mmHg) [3]: 2.8 mg/kg |
| CCOC(=O)c1c(C)cc2nc(COC(=O)NC(C)C)n(-c3ccccc3Cl)c(=O)c2c1C [Compound 2, 3-(2-chlorophenyl)-6-ethoxycarbonyl-5,7-dimethyl-2-(N-isopropylcarbamoyloxymethyl)-4(3H)-quinazolinone] | 24 | 48 | – | ED (30 mmHg) [3]: 0.42 mg/kg |
| CCOC(=O)c1c(C)cc2nc(COC(=O)N(C)C)n(-c3ccccc3Cl)c(=O)c2c1C.Cl [Compound 3, 3-(2-chlorophenyl)-2-(N,N-dimethylcarbamoyloxymethyl)-6-ethoxy-carbonyl-5,7-dimethyl-4(3H)-quinazolinone hydrochloride] | 0 | 0 | 1 | Hypotensive Effect Δ(mmHg) ([1]; dose 30 μg/kg): 6 mmHg; Hypotensive Effect Δ(mmHg) ([1]; dose 100 μg/kg): 20 mmHg |
| CCNC(=O)OCc1nc2cc(C)c(C(=O)OCC)c(C)c2c(=O)n1-c1ccccc1Cl [Compound 9] | 22 | 42 | – | ED (30 mmHg) [3]: 0.35 mg/kg |
| CCCNC(=O)OCc1nc2cc(C)c(C(=O)OCC)c(C)c2c(=O)n1-c1ccccc1Cl [Compound 10] | 10 | 25 | – | – |
| CCCCNC(=O)OCc1nc2cc(C)c(C(=O)OCC)c(C)c2c(=O)n1-c1ccccc1Cl [Compound 12] | 10 | 25 | – | – |
| CCOC(=O)c1c(C)cc2nc(COC(=O)NC(C)(C)C)n(-c3ccccc3Cl)c(=O)c2c1C [Compound 14] | 8 | 10 | 25 | – |
| CCOC(=O)c1c(C)cc2nc(COC(=O)NC(C)C)n(-c3ccccc3F)c(=O)c2c1C [Compound 18] | 5 | 10 | 28 | – |
| CCOC(=O)c1c(C)cc2nc(COC(=O)NC(C)C)n(-c3ccccc3Br)c(=O)c2c1C [Compound 19] | 20 | 35 | – | – |
| CCOC(=O)c1c(C)cc2nc(COC(=O)NC(C)C)n(-c3ccccc3C)c(=O)c2c1C [Compound 23] | 8 | 25 | – | – |
| CCOC(=O)c1c(C)cc2nc(COC(=O)NC(C)C)n(-c3ccccc3C(F)(F)F)c(=O)c2c1C [Compound 27] | 0 | 0 | 8 | Hypotensive Effect Δ(mmHg) ([1]; dose 30 μg/kg): 18 mmHg; Hypotensive Effect Δ(mmHg) ([1]; dose 100 μg/kg): 25 mmHg |
| CCNC(=O)OCc1nc2cc(C)c(C(=O)OCC)c(C)c2c(=O)n1-c1ccccc1[N+](=O)[O-] [Compound 28] | 0 | 6 | 9 | Hypotensive Effect Δ(mmHg) ([1]; dose 30 μg/kg): 25 mmHg |
| COc1ccc(Cc2nccc3cc(OC)c(OC)cc23)cc1OC [papaverine, reference compound] | – | – | – | hypotensive effect in anesthetized dogs (in words) [1]: did not exhibit a hypotensive effect |
